Article PMC9583322, “Vicinal Diaryl-Substituted Isoxazole and Pyrazole Derivatives with In Vitro Growth Inhibitory and In Vivo Antitumor Activity” (ACS Omega, 2022)

Assays:
[1] = system: plasma protein; assay: Plasma protein binding; type: in vitro ADME
Procedure: (§1) All chemicals were purchased from different suppliers such as Sigma-Aldrich Chemicals (Sigma-Aldrich Corp., St. Louis, MO), Merck Chemicals (Merck KGaA, Darmstadt, Germany), and ABCR (abcr GmbH, Karlsruhe, Germany). THF was dried from benzophenone-sodium. ^1H and ^13C NMR spectra were recorded in CDCl3 or DMSO-d6 on a Varian Mercury 400 MHz spectrometer using tetramethylsilane as the internal standard. Coupling constants were reported as Hertz and all chemical shifts were recorded as δ (ppm). High-resolution mass spectra data (HRMS) were collected using Waters LCT Premier XE Mass Spectrometer operating in ESI(+) or ESI(−) method, also coupled to an AQUITY Ultra Performance Liquid Chromatography system (Waters Corporation) using a UV detector monitoring at 254 nm. Purity for all final compounds was >95%, according to the UPLC-MS method using a water/MeCN solvent gradient containing 0.1% formic acid (1%/90%); flow rate: 0.3 mL/min, column: Aquity BEH C18 column (2.1 × 100 mm^2, 1.7 mm). All microwave irradiation reactions were carried out in a Biotage Initiator + microwave apparatus with Biotage sealed microwave vials. […] Melting points of the compounds were determined using the SMP50 automated melting point apparatus (Stuart, Staffordshire, ST15 OSA, U.K.). […]

[2] = Metabolic stability in human microsomes; type: in vitro ADME; settings: after 45 min incubation
Procedure: as §1

[3] = Mouse PK, IV and PO; type: in vivo
Procedure: 1000 Mean Mice PK plasma concentrations after
Figure S2. Plasma concentrations vs. time profile of 85 after single dose IV (1 mg/kg) and PO
(10 mg/kg) administrations in male CD-1 mice. The PK study was done at Syngene
International, Ltd., India. […]

[4] = Solubility at the physiological pH; type: physicochemical
Procedure: as §1

[5] = target: CYP3A4 (Homo sapiens, UniProt P08684); assay: CYP inhibition; type: in vitro ADME; settings: read-out: Inhibition of human CYP 3A4
Sequence of CYP3A4 (P08684 whole entry): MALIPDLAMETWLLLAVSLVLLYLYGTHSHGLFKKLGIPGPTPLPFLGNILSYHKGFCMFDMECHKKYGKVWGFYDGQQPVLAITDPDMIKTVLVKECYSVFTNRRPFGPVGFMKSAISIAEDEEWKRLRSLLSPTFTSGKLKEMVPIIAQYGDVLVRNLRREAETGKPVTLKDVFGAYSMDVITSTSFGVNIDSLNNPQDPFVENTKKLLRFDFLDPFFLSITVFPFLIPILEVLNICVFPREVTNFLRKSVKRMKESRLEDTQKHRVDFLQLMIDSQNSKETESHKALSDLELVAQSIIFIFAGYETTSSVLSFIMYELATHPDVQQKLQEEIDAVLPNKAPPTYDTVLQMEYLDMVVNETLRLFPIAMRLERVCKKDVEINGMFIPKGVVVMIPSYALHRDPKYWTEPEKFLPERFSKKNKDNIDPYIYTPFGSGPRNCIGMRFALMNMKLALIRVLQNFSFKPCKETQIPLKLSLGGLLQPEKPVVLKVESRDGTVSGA
Procedure: (§2) All chemicals were purchased from different suppliers such as Sigma-Aldrich Chemicals (Sigma-Aldrich Corp., St. Louis, MO), Merck Chemicals (Merck KGaA, Darmstadt, Germany), and ABCR (abcr GmbH, Karlsruhe, Germany). THF was dried from benzophenone-sodium. ^1H and ^13C NMR spectra were recorded in CDCl3 or DMSO-d6 on a Varian Mercury 400 MHz spectrometer using tetramethylsilane as the internal standard. Coupling constants were reported as Hertz and all chemical shifts were recorded as δ (ppm). High-resolution mass spectra data (HRMS) were collected using Waters LCT Premier XE Mass Spectrometer operating in ESI(+) or ESI(−) method, also coupled to an AQUITY Ultra Performance Liquid Chromatography system (Waters Corporation) using a UV detector monitoring at 254 nm. Purity for all final compounds was >95%, according to the UPLC-MS method using a water/MeCN solvent gradient containing 0.1% formic acid (1%/90%); flow rate: 0.3 mL/min, column: Aquity BEH C18 column (2.1 × 100 mm^2, 1.7 mm). All microwave irradiation reactions were carried out in a Biotage Initiator + microwave apparatus with Biotage sealed microwave vials. Flash chromatography was performed on a Combiflash Rf Automatic Flash Chromatography System with RediSep silica gel columns (12, 24, and 40 g) (Teledyne-Isco, Lincoln, NE) or Reveleris PREP Purification System (Buchi, New Castle, DE). Preparative chromatography was performed on Buchi US15C18HQ-250/212-C18 silica gel columns with the following devices; Reveleris PREP Purification System or PuriFlash 4250 System (Interchim, Montluçon, France). Melting points of the compounds were determined using the SMP50 automated melting point apparatus (Stuart, Staffordshire, ST15 OSA, U.K.). The in vitro ADME and in vivo mouse PK studies were conducted at Syngene International Ltd., Bangalore, India. General synthetic procedures (Methods 1–9) and experimental data for all intermediate compounds can be found in the Supporting Information.

[6] = target: CYP2D6 (Homo sapiens, UniProt P10635); assay: CYP inhibition; type: in vitro ADME; settings: read-out: Inhibition of human CYP 2D6
Sequence of CYP2D6 (P10635 whole entry): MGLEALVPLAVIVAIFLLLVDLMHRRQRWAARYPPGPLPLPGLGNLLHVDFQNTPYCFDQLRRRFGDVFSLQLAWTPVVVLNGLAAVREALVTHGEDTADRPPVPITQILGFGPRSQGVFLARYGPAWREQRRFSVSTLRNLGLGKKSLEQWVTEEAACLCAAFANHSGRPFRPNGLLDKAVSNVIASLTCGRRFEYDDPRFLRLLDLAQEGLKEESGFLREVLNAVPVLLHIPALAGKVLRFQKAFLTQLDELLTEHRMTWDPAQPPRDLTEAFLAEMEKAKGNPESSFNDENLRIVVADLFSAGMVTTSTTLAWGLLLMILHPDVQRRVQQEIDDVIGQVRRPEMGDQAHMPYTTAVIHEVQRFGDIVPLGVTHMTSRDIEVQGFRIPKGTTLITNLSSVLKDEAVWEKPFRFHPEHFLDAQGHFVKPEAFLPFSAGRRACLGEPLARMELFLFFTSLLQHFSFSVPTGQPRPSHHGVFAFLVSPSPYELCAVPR
Procedure: as §2

[7] = target: CYP2C9 (Homo sapiens, UniProt P11712); assay: CYP inhibition; type: in vitro ADME; settings: read-out: Inhibition of human CYP 2C9
Sequence of CYP2C9 (P11712 whole entry): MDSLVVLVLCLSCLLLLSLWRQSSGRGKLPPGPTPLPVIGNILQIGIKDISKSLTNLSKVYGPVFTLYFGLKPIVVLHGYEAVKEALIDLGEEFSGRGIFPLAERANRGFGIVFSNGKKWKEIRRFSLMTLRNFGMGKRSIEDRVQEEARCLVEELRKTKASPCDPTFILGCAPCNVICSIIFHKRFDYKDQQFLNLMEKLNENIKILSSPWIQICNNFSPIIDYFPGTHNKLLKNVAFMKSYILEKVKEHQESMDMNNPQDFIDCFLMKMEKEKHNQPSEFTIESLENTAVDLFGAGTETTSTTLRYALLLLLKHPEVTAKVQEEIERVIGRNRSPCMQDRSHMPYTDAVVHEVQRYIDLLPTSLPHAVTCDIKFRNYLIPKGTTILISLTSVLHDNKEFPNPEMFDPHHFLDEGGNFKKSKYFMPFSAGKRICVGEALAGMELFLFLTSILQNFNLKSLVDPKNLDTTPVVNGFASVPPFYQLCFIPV
Procedure: as §2

[8] = system: Huh7, Mahlavu and MCF7; assay: SRB cytotoxicity, summary for all three cell lines; type: cell-based; settings: Homo sapiens; one value or range for Huh7, Mahlavu and MCF7 together; read-out: IC50 against all three cell lines
Procedure: Mahlavu, FOCUS, SNU475 (1000 cell/well in 150 μL/well); Huh7, MCF7 (2500 cell/well in 150 μL/well); HepG2, Hep3B, SKBR3 (3000 cell/well in 150 μL/well); PLC-PRF-5, Hep40 (5000 cell/well in 150 μL/well); MDA-MB-231, MDA-MB-468, MCF10A (6000 cell/well in 150 μL/well); and ZR-75 (7500 cell/well in 150 μL/well) were cultured in 96-well plates and were inoculated in an incubator for 24 hours. The compounds were dissolved in dimethyl sulfoxide (DMSO) (Sigma, St Louis, MO) as a 20 mM stock solution. The treatment of cells with the compounds was done in a concentration range starting from 40 to 2.5 μM. The compounds which were below 2.5 μM were tested in a concentration range from 2.5 to 0.15 μM. End of the 72h compound treatment, the cells were fixed using 10% (v/v) trichloroacetic acid (MERCK) for an hour and washed with ddH2O, and left for air-drying. The fixed plates were stained with 50 μL of sulforhodamine B (SRB) solution (Sigma) at RT for 10 min. To remove unbound SRB dye, acetic acid was used to wash cells three times and left for drying. The protein-bound SRB was solubilized with 10 mM Tris-base (Sigma) and their absorbance was measured with a 96-well plate reader at 515 nm wavelength (ELx800, Biotek). The IC50 values of compounds were calculated in comparison with control group DMSO. Data with R^2 values larger than 0.9 are considered significant.

[9] = male, CD-1, plasma, 1 mg/kg, Mouse IV PK, 1 mpk
[10] = male, CD-1, plasma, 10 mg/kg, Mouse PO PK, 10 mpk

Cc1ccccc1COc1ccc(-c2ccnn2-c2ccc(Cl)cc2)cc1 [compound 85, 1-(4-Chlorophenyl)-5-(4-((2-methylbenzyl)oxy)phenyl)-1H-pyrazole]
plasma protein-bound [1]: 99.9% | Metabolic stability, remaining [2]: 55% | Co ([3]; Mouse IV PK, 1 mpk): 393 ng/mL | AUC [3, 9]: 436 ng·h/mL | Vd [3, 9]: 13.2 L/kg | half-life [3, 9]: 3.85 h | clearance ([3]; male, CD-1, plasma, 1 mg/kg, Mouse IV PK, 1 mpk, read-out: Clp (converted)): 38.8 mL/min/kg | AUC [3, 10]: 192 ng·h/mL | Cmax [3, 10]: 19.3 ng/mL | bioavailability [3, 10]: 5% | half-life [3, 10]: 6.64 h | Solubility [4]: sparingly soluble | inhibition at 10 µM [5]: 0% | inhibition at 10 µM [6]: 22.2% | inhibition at 10 µM [7]: 7.3% | IC50 [8]: 0.7 to 14.4 µM
